Experimental data published in ChEMBL document CHEMBL1201862, “PubChem BioAssay data set” (2004).
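Five concentrations, 48 hours, 96-well plates. GI50 marks 50% less growth.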 Active and inactive are the calls of the source. Cut-off read from the data, not from the text of the source: active = GI50 up to about 1.1 µM and inactive = higher.

Legend:
Assay in all cases: inhibition of tumour cell growth, NCI panel, 48 h
786-0 = tested on: 786-0
CCRF-CEM = tested on: CCRF-CEM
SNB-19 = tested on: SNB-19
M14 = tested on: M14
ACHN = tested on: ACHN
NCI-H23 = tested on: NCI-H23
OVCAR-5 = tested on: OVCAR-5
NCI-H522 = tested on: NCI-H522
MOLT-4 = tested on: MOLT-4
OVCAR-3 = tested on: OVCAR-3
OVCAR-8 = tested on: OVCAR-8
HL-60 = tested on: HL-60
CAKI-1 = tested on: CAKI-1
HCC 2998 = tested on: HCC 2998
SNB-75 = tested on: SNB-75
UACC-257 = tested on: UACC-257
U-251 = tested on: U-251
A549 = tested on: A549
UACC-62 = tested on: UACC-62

Measured: GI50

CNCc1cc(OC)ccc1-c1ccc(OC)c(OC)c1OC
inactive: 786-0 > 100 µM | CCRF-CEM > 92.9 µM | SNB-19 > 100 µM | M14 > 100 µM | ACHN > 100 µM | NCI-H23 > 100 µM | OVCAR-5 > 100 µM | NCI-H522 > 100 µM | MOLT-4 99.3 µM | OVCAR-3 > 70 µM | OVCAR-8 > 100 µM | HL-60 48.1 µM | CAKI-1 > 100 µM | HCC 2998 > 88.7 µM | SNB-75 44.6 µM | UACC-257 > 100 µM | U-251 > 100 µM | A549 > 100 µM | UACC-62 > 100 µM

CC#CC#C/C=C1\C=CC2(OC=CC2O)O1 (stereo not given)
inactive: 786-0 > 16 µM | CCRF-CEM > 11.3 µM | SNB-19 > 23.3 µM | M14 > 17.8 µM | ACHN > 23.3 µM | NCI-H23 > 20.3 µM | OVCAR-5 4.23 µM | NCI-H522 5.65 µM | MOLT-4 10.5 µM | OVCAR-3 7.52 µM | OVCAR-8 14.3 µM | HL-60 > 14.1 µM | CAKI-1 14.8 µM | HCC 2998 > 16.2 µM | SNB-75 > 19.1 µM | UACC-257 16 µM | U-251 > 20.7 µM | A549 13.1 µM | UACC-62 9.59 µM

N[C@H](COCc1ccccc1)c1ccccc1
inactive: 786-0 29.3 µM | CCRF-CEM 23.8 µM | SNB-19 30.6 µM | M14 23.1 µM | ACHN 31.5 µM | NCI-H23 23 µM | OVCAR-5 24.9 µM | NCI-H522 16.5 µM | MOLT-4 16.7 µM | OVCAR-3 26.7 µM | OVCAR-8 35.6 µM | HL-60 11.9 µM | CAKI-1 23.7 µM | HCC 2998 29.9 µM | SNB-75 20 µM | UACC-257 28.1 µM | U-251 > 56 µM | A549 33.5 µM | UACC-62 32.1 µM

Cc1nc(-n2nc(-c3ccccc3)cc2-c2ccccc2)sc1C(=O)CC(=O)C(=O)Nc1ccc(O)cc1
inactive: 786-0 > 100 µM | CCRF-CEM > 100 µM | SNB-19 > 100 µM | M14 > 100 µM | ACHN > 100 µM | NCI-H23 > 100 µM | OVCAR-5 > 100 µM | NCI-H522 > 100 µM | MOLT-4 > 100 µM | OVCAR-3 > 100 µM | OVCAR-8 > 100 µM | HL-60 > 100 µM | CAKI-1 > 100 µM | HCC 2998 > 100 µM | SNB-75 > 100 µM | UACC-257 > 100 µM | U-251 > 100 µM | A549 > 100 µM | UACC-62 > 100 µM

CCS(CC)(CC)CC1CCCC2=CCC(P(=O)(c3ccccc3)c3ccccc3)CC21 (stereo not given)
inactive: 786-0 10.9 µM | CCRF-CEM 6.78 µM | SNB-19 12.9 µM | M14 12.2 µM | ACHN 9.02 µM | NCI-H23 10.5 µM | OVCAR-5 15.6 µM | NCI-H522 11 µM | MOLT-4 4.43 µM | OVCAR-3 13.7 µM | OVCAR-8 11.4 µM | HL-60 3.31 µM | CAKI-1 10 µM | HCC 2998 9.25 µM | SNB-75 11 µM | UACC-257 > 10 µM | U-251 10.2 µM | A549 4.89 µM | UACC-62 3.01 µM

Cc1cccc(C)c1NC(=O)C(=O)C(C#N)c1ccccc1Cl (stereo not given)
inactive: 786-0 > 100 µM | CCRF-CEM > 100 µM | SNB-19 > 100 µM | M14 > 100 µM | ACHN > 100 µM | NCI-H23 > 100 µM | OVCAR-5 > 100 µM | NCI-H522 > 100 µM | MOLT-4 > 100 µM | OVCAR-3 > 100 µM | OVCAR-8 > 100 µM | HL-60 80.2 µM | CAKI-1 > 100 µM | HCC 2998 > 100 µM | SNB-75 > 100 µM | UACC-257 > 100 µM | U-251 > 100 µM | A549 > 100 µM | UACC-62 > 100 µM

CCc1cccc(C(C)C)c1NC(=O)C(=O)C(Cc1nc2ccccc2nc1O)C(=O)OC (stereo not given)
inactive: 786-0 > 100 µM | CCRF-CEM 60.8 µM | SNB-19 > 100 µM | M14 > 100 µM | ACHN > 100 µM | NCI-H23 > 100 µM | OVCAR-5 > 100 µM | NCI-H522 98.4 µM | MOLT-4 > 100 µM | OVCAR-3 > 100 µM | OVCAR-8 > 100 µM | HL-60 > 100 µM | CAKI-1 > 100 µM | HCC 2998 > 100 µM | SNB-75 65.6 µM | UACC-257 > 100 µM | U-251 > 100 µM | A549 > 100 µM | UACC-62 > 100 µM

CC(=O)O/N=C(/C)c1ccccc1O
inactive: 786-0 > 100 µM | CCRF-CEM > 100 µM | SNB-19 > 100 µM | M14 > 100 µM | ACHN > 100 µM | NCI-H23 > 100 µM | OVCAR-5 > 100 µM | NCI-H522 > 100 µM | MOLT-4 > 100 µM | OVCAR-3 > 100 µM | OVCAR-8 > 100 µM | HL-60 > 100 µM | CAKI-1 > 100 µM | HCC 2998 > 100 µM | SNB-75 > 100 µM | UACC-257 > 100 µM | U-251 > 100 µM | A549 > 100 µM | UACC-62 > 100 µM

C=CC[C@H](C[C@H](C[C@H](C[C@H](C[C@H](C[C@H](C[C@H](C[C@H](C[C@H](C[C@H](CCCCC)OC)OC)OC)OC)OC)OC)OC)OC)OC)OC
inactive: 786-0 > 100 µM | CCRF-CEM > 100 µM | SNB-19 83.2 µM | M14 > 100 µM | ACHN > 100 µM | NCI-H23 98.6 µM | OVCAR-5 > 100 µM | NCI-H522 66.2 µM | MOLT-4 41.8 µM | OVCAR-3 > 100 µM | OVCAR-8 > 100 µM | HL-60 52.5 µM | CAKI-1 > 100 µM | HCC 2998 > 100 µM | SNB-75 58.1 µM | UACC-257 70.8 µM | U-251 > 100 µM | A549 > 100 µM | UACC-62 > 100 µM

Cc1ccc(-n2c3nc(=O)n(C)c(=O)c-3nc3ccccc32)cc1
inactive: 786-0 30.2 µM | CCRF-CEM 17.3 µM | SNB-19 12.9 µM | M14 12.8 µM | ACHN 3.26 µM | NCI-H23 1.56 µM | OVCAR-5 23.8 µM | NCI-H522 12.6 µM | MOLT-4 14.9 µM | OVCAR-3 3.24 µM | OVCAR-8 9.2 µM | HL-60 11.1 µM | CAKI-1 21.9 µM | HCC 2998 4.61 µM | SNB-75 10.9 µM | UACC-257 12.8 µM | U-251 15.1 µM | A549 6.43 µM | UACC-62 2.3 µM
